Test [1] concerns K30 polysaccharide transport through Wza. The experiment in a line: Inhibition of K30 polysaccharide transport through Wza, phenol extraction and carbohydrate staining. In kind it is cell-based, E. coli strain E69. The method, then: The inhibitory effect of am8γCD, am7βCD and am6αCD were tested on live bacteria (E. coli strain E69) with K30 capsular polysaccharide (CPS) and Wza as its transporter. Isolation and staining of the polysaccharides was used. Phenol extraction was carried out in accordance with Orskov (Eur. J. Biochem.; 1980, Stirm, J. Bacteriol. 1967) to isolate the capsular polysaccharide (CPS) and lipopolysaccharide (LPS), followed by carbohydrate staining Pro-Q Emerald 300 glycoprotein stain kit (Molecular Probes) was used for staining of both the CPS and LPS. The staining time, loading volume, oxidation time and washing time after staining were optimised and the following conditions used in the assay:
Loading volume: 3 μL of the stock aqueous polysaccharide solution (see below), mixed with 3 μL of the Laemmli sample buffer (1 mL, Bio-Rad) mixed with 2-mercaptoethanol (950 microliter:50 microliter) before use;
Oxidation time: 30 minutes
Further details of the microbiology and the staining procedures used are as follows: The strains were grown in the absence of or the presence of various concentrations of am8γCD overnight in M9 minimal medium until OD reached ˜0.5. Cells were collected by centrifugation of the culture at 2583×g for 20 minutes at 4° C. In the phenol extraction, volume of phenol/buffer (20 mM Tris.-HCl, 2 mM MgCl2, 20 mM NaCl, pH 8.0) to each tube with a cell pellet is calculated as OD*667 μL. […] By doing this, the cell concentration in each sample was identical so that the changes in CPS and LPS quantity of each cell on average could be compared quantitatively.
Detailed measurement of the inhibitory effect of am8γCD towards K30 polysaccharide translocation was then performed. […] The gel was stained to generate fluorescence signals that correspond to the sugar quantity. […]
The fluorescent intensities of the gels were measured by using the Bio-Rad Universal Hood II. […] The fluorescence intensity of each lane was processed with the Plot Lane function after illumination of the gel with UV light at 302 nm and fluorescent data collection emissions going through an Amber Filter (548-630 nm).

Another test addresses mutant Wza Y110G (Escherichia coli, UniProt Q9X4B7, Y110G). The experiment in a line: Single-channel electrical recording, mutant Wza Y110G. In kind it is binding, E. coli. As to conditions: n = 3, read-out: Dissociation constant (Kd) with mutant Wza pore. The method, then: Thirteen commercial cyclodextrins (CDs) were tested for their ability to block WT-Wza and the mutant Y110G/K375C (Table 1) including, neutral, negatively charged or positively charged cyclodextrins. […]

Like-named read-outs stand apart in the source and are kept apart here.

As a reminder, the Kd is the equilibrium constant for the complex coming apart.

Take `NC[C@H]1O[C@@H]2O[C@H]3[C@H](O)[C@@H](O)[C@@H](O[C@H]4[C@H](O)[C@@H](O)[C@@H](O[C@H]5[C@H](O)[C@@H](O)[C@@H](O[C@H]6[C@H](O)[C@@H](O)[C@@H](O[C@H]7[C@H](O)[C@@H](O)[C@@H](O[C@H]8[C@H](O)[C@@H](O)[C@@H](O[C@H]9[C@H](O)[C@@H](O)[C@@H](O[C@H]1[C@H](O)[C@H]2O)O[C@@H]9CN)O[C@@H]8CN)O[C@@H]7CN)O[C@@H]6CN)O[C@@H]5CN)O[C@@H]4CN)O[C@@H]3CN` [No. 12, Octacis (6-amino-6-deoxy)-γ-cyclodextrin]: the “Inhibition of K30 polysaccharide transport compared with am7βCD and am6αCD” value in test [1] (1 mM, E. coli strain E69, staining assay) is listed as “much stronger”. Besides, the “LPS fluorescent intensity at saturation” value in test [1] (E. coli strain E69, increasing am8γCD) was “around 2 times that of the control”. Further, in test [1] (Escherichia coli, read-out: IC50 from concentration dependence of the CPS band intensity), the IC50 worked out at 51.2 ± 1 µM. Also, the Kd at mutant Wza Y110G (300 mM KCl, 5 mM HEPES, pH 7.5, +10 mV) amounted to 5.6 ± 2.4 nM; on mutant Wza Y110G (2M KCl buffer pH 7.5, +3 mV), 4700 ± 4600 nM.

Values taken from patent US9963518B2, “Cyclic oligosaccharides for use in the treatment and prevention of bacterial infection” (priority 2011, dated 2018).
